Columns and labels:
[1] = target: T1, Nuclear receptor ROR-gamma (Mus musculus, UniProt P51450); assay: Antagonist activity at mouse Gal4-fused DBD RORgamma LBD (Pro-261-end) expressed in TRex-CHOK1 cells after 20 hrs by luciferase reporter gene assay; format: cell-based
T1 sequence (P51450 whole entry): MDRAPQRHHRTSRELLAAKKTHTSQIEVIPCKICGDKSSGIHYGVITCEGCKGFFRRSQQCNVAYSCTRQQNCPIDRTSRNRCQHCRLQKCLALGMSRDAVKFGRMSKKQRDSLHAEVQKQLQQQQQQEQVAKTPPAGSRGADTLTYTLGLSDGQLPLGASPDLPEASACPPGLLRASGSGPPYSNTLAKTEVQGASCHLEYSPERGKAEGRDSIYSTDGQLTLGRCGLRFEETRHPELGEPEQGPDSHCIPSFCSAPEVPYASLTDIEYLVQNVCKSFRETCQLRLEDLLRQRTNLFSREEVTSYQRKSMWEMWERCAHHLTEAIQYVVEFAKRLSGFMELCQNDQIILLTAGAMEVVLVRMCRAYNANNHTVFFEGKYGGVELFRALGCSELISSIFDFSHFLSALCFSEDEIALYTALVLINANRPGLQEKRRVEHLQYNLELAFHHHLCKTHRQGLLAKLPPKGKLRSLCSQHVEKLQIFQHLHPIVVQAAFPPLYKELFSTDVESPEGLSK

[2] = target: T2, Nuclear receptor ROR-beta (Rattus norvegicus, UniProt P45446); assay: Antagonist activity at rat Gal4-fused DBD RORbeta LBD (Pro-205-end) expressed in TRex-CHOK1 cells after 20 hrs by luciferase reporter gene assay; format: cell-based
T2 sequence (P45446 whole entry): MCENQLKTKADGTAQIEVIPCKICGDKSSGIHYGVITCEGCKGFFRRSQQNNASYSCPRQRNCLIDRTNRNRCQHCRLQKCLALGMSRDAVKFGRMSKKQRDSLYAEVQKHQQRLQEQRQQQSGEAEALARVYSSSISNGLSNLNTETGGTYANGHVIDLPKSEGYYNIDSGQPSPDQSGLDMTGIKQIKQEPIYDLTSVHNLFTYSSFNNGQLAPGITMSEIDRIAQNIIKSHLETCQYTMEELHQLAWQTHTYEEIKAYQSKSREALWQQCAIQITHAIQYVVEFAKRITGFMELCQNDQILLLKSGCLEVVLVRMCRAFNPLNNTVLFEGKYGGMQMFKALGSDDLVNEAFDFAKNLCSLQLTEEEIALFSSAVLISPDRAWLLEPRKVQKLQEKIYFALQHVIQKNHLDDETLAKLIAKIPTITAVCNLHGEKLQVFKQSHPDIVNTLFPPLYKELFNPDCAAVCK

SMILES | IC50 [1] [µM] | IC50 [2] [µM]
CCCC1=N[C@@H](CCCCN2C[C@H](Cc3ccccc3)N(CCC3CC4CCC3C4)C2=S)CN1 (stereo not given in full) | 9.3 | 17
CCCC1=N[C@@H](CCCCN2C[C@@H](C(C)(C)C)N(CCc3ccccc3)C2=S)CN1 | 11.8 | 22.3
CC(CC1=N[C@@H](CCCCN2C[C@H](Cc3ccccc3)N(CCc3ccccc3)C2=S)CN1)c1ccccc1 (stereo not given in full) | 6.5 | 10.9
CCCC1=N[C@@H](CCCCN2C[C@H](Cc3ccccc3)N(CCC3C4CC5CC(C4)CC3C5)C2=S)CN1 (stereo not given in full) | 7.9 | 10.7
C/C=C/C1=N[C@@H](CCCCN2C[C@H](Cc3ccccc3)N(CCc3ccccc3)C2=S)CN1 | 5.8 | 12.5
Cc1cccc(CC2=N[C@@H](CCCCN3C[C@H](Cc4ccccc4)N(CCc4ccccc4)C3=S)CN2)c1 | 6.3 | 9
CCCC[C@H]1CN(CCCC[C@H]2CNC(CCC)=N2)C(=S)N1CCc1ccccc1 | 10.2 | 17.5
CCCC1=N[C@@H](CCCCN2C[C@H](Cc3ccccc3)N(CC3CCC(C)CC3)C2=S)CN1 (stereo not given in full) | 13.7 | 21.1
S=C1N(CCCC[C@H]2CNC(CC3CCCCC3)=N2)C[C@H](Cc2ccccc2)N1CCc1ccccc1 | 5.1 | 8.3
CCCC1=N[C@@H](CCCCN2C[C@H](Cc3ccccc3)N(CCCC3CCCC3)C2=S)CN1 | 6.4 | 10.2

Results, then the molecule that gave them:

IC50 [1] [µM] | IC50 [2] [µM] | SMILES
6.6 | 12.4 | Fc1cccc(CC2=N[C@@H](CCCCN3C[C@H](Cc4ccccc4)N(CCc4ccccc4)C3=S)CN2)c1
5.6 | 9.1 | S=C1N(CCCC[C@H]2CNC(CCC3CCCC3)=N2)C[C@H](Cc2ccccc2)N1CCc1ccccc1
6.3 | 8.4 | COc1cccc(CC2=N[C@@H](CCCCN3C[C@H](Cc4ccccc4)N(CCc4ccccc4)C3=S)CN2)c1
10.2 | 14.3 | C=CCC1=N[C@@H](CCCCN2C[C@H](Cc3ccccc3)N(CCc3ccccc3)C2=S)CN1
7.7 | 12.4 | Fc1ccc(CC2=N[C@@H](CCCCN3C[C@H](Cc4ccccc4)N(CCc4ccccc4)C3=S)CN2)cc1
